Results published in US10920238B2, “Winter aconite fatty acid elongase and uses thereof in the production of fatty acids” (National Research Council of Canada, priority 2016, dated 2021).

Each compound was assayed on EhELO1 (assay: Elongation efficiency on fatty acid substrates by EhELO1 expressed in Saccharomyces cerevisiae (in vivo activity assay)). Conditions: yeast INVSc1 transformant with EhELO1/pHVX2; 0.25 mM free fatty acid substrate with tergitol, 20° C. for 2 days; calculated from peak area of FAMEs; means of four replicates with standard deviation.
Type: cell-based, Eranthis hyemalis
Method: To define the diverse activity of the discovered elongase (EhELO1) from winter aconite, a variety of possible common fatty acids and unusual fatty acids that differ in the number and position of double bonds as well as in the chain length was exogenously supplied to the yeast transformant expressing the elongase EhELO1 for in vivo activity assays. The conversion of substrates to products was measured and used for the comparison of elongation efficiencies among fatty acid substrates.
The EhELO1 coding sequence was released from plasmid, EhELO1/pYES2.1 and sub-cloned into another yeast expression vector pHVX2 under the control of phosphoglycerate kinase 1 constitutive promoter, giving a plasmid EhELO1/pHVX2. The recombinant plasmid was transformed into Saccharomyces cerevisiae INVSc1. The yeast transformants with either EhELO1 or empty vector pHVX2 were grown at 30° C. for 1 day. The overnight cultures were diluted to an OD600 of 0.1 in the same medium supplemented with or without 0.25 mM of various free fatty acids in the presence of tergitol. After incubation at 20° C. for 2 days, yeast cells were harvested and washed once with tergitol and once with water. Total fatty acids in yeast transformants were converted to FAMES by an acid transmethylation process and analyzed by gas chromatography.

| SMILES | Elongation efficiency (%) |
| --- | --- |
| CCCCCCCC/C=C\CCCCCCCC(=O)O [18:1-9] | 3.3 ± 0.07% |
| CCCCCC/C=C\CCCCCCCCCC(=O)O [18:1-11] | 49.4 ± 1.79% |
| CCCCC/C=C\C/C=C\CCCCCCCC(=O)O [18:2-9, 12, linoleic acid] | 44.6 ± 3.26% |
| CCCCC/C=C\C/C=C\C/C=C\CCCCC(=O)O [18:3-6,9, 12, γ-linolenic acid] | 28.3 ± 1.95% |
| CC/C=C\C/C=C\C/C=C\CCCCCCCC(=O)O [18:3-9, 12, 15, linolenic acid] | 54.7 ± 0.83% |
| CC/C=C\C/C=C\C/C=C\C/C=C\CCCCC(=O)O [18:4-6,9, 12, 15] | 25.0 ± 0.37% |
| CCCCCCCCC=CCCCCCCCCCC(=O)O [20:1-11] | 12.6 ± 0.23% |
| CCCCC/C=C\C/C=C\CCCCCCCCCC(=O)O [20:2-11, 14, eicosadienoic acid] | 48.5 ± 2.12% |
| CCCCC/C=C\C/C=C\C/C=C\CCCCCCC(=O)O [20:3-8, 11, 14] | 46.4 ± 1.44% |
| CC/C=C\C/C=C\C/C=C\CCCCCCCCCC(=O)O [20:3-11, 14, 17] | 61.8 ± 0.35% |
| CCCCC/C=C\C/C=C\C/C=C\C/C=C\CCCC(=O)O [20:4-5,8, 11, 14, arachidonic acid] | 36.2 ± 0.92% |
| CC/C=C\C/C=C\C/C=C\C/C=C\CCCCCCC(=O)O [20:4-8, 11, 14, 17] | 50.3 ± 0.53% |
| CC/C=C\C/C=C\C/C=C\C/C=C\C/C=C\CCCC(=O)O [20:5-5,8, 11, 14, 17, eicosapentaenoic acid] | 39.8 ± 0.43% |
| CCCCCCCC/C=C\CCCCCCCCCCCC(=O)O [22:1-13] | 0.0 ± 0.0% |
| CCCCC/C=C\C/C=C\CCCCCCCCCCCC(=O)O [22:2-13, 16, docosadienoic acid] | 3.4 ± 0.17% |
| CC/C=C\C/C=C\C/C=C\CCCCCCCCCCCC(=O)O [22:3-13, 16, 19, docosatrienoic acid] | 9.7 ± 0.13% |
| CCCCC/C=C\C/C=C\C/C=C\C/C=C\CCCCCC(=O)O [22:4-7, 10, 13, 16] | 20.5 ± 0.37% |
| CCC=CCC=CCC=CCC=CCCCCCCCCC(=O)O [22:4-10, 13, 16, 19] | 32.7 ± 0.49% |
| CC/C=C\C/C=C\C/C=C\C/C=C\C/C=C\CCCCCC(=O)O [22:5-7, 10, 13, 16, 19] | 31.9 ± 0.19% |
| CC/C=C\C/C=C\C/C=C\C/C=C\C/C=C\C/C=C\CCC(=O)O [22:6-4,7, 10, 13, 16, 19, docosahexaenoic acid] | 10.8 ± 0.52% |

Same assay, conditions: yeast transformant expressing EhELO1, comparison among supplied substrates

| SMILES | Substrate preference of EhELO1 (in words) |
| --- | --- |
| CCCCCC/C=C\CCCCCCCCCC(=O)O [18:1-11] | highly active |
| CC/C=C\C/C=C\C/C=C\CCCCCCCCCC(=O)O [20:3-11, 14, 17] | most preferred |

What follows are compounds tested on CtELO6 (assay: Elongation of fatty acid by elongase CtELO6 studied in yeast, Saccharomyces cerevisiae). Conditions: not given.
Type: cell-based, Conidiobolus thromboides
From the text: Accordingly, it is expected that the production of 20:2:11,14 by CtELO6 in plants may provide increased substrate for EhELO1, providing enhanced production of DDA in plants expressing both CtELO6 and EhELO1.

| SMILES | elongation efficiency |
| --- | --- |
| CCCCC/C=C\C/C=C\CCCCCCCC(=O)O [18:2-9, 12, linoleic acid] | more than 20% |
